The results in this text go back to patent US8404721B2, “Compositions and methods for treating seizure disorders” (Allergan, Inc., priority 2009, dated 2013).

The test deals with Male C57B/6 mice. Description: Pentylenetetrazol (PTZ)-induced convulsions in mice. In kind it is in vivo. As to conditions: for Latency to first convulsion: convulsion level 3 or higher; for Number of events Myoclonic: level 3+level 4 events; for Number of events Myoclonic / Number of events Clonic / Number of events Tonic-Clonic: scored 10 minutes; for Number of events Clonic: level 5 events; for Number of events Tonic-Clonic: level 6+level 7 events. The procedure:
Male C57B/6 mice (20-25 g) were administered intraperitoneal Compound A (1 mg/kg), Compound B (1 or 10 mg/kg), Compound C (1 mg/kg), diazepam (0.5 mg/kg), gabapentin (50 mg/kg), or vehicle (ddH 2O) prior to treatment with pentylenetetrazol (PTZ, 50 mg/kg IP). Compounds A, B, C, and gabapentin were administered 60 minutes before, and diazepam or vehicle was administered 30 minutes before PTZ. Immediately following PTZ injection, mice were individually placed in an observation cage and the latency to onset of first convulsion (level 3 or higher; Table 2) was recorded, as well as the number of each type of convulsion (see Table 2 for scoring method modified from the scale used by Rizwan et al, Pol. J. Pharmacol., 55(6):965-71 (2003)).
Level I and 2 behaviors were not considered convulsions, but were scored to keep track of any possible sedative or abnormal effect following drug treatment.
Data are expressed as the number of myoclonic convulsions (level 3+level 4 events), number of clonic convulsions (level 5 events), and number of tonic-clonic events (level 6+level 7 events; Table 3-1), as well as the latency to first convulsion onset (in seconds). The sum of each convulsion type/mouse (myclonic, clonic, or clonic-tonic) was entered into GraphPad Prism and analyzed by One-Way ANOVA with post-hoc Dunnett's Multiple Comparisons Tests relative to vehicle+PTZ. Overall significance was established when P<0.0125 (corrected for number of groups). Post-hoc comparisons were considered significant when P<0.05.

The mark [1] stands for this setting: 1 mg/kg intraperitoneal, 60 minutes before PTZ 50 mg/kg IP.
Where [2] appears, read: 10 mg/kg intraperitoneal, 60 minutes before PTZ 50 mg/kg IP.
[3] abbreviates: 0.5 mg/kg intraperitoneal, 30 minutes before PTZ 50 mg/kg IP.
The mark [4] stands for this setting: 50 mg/kg intraperitoneal, 60 minutes before PTZ 50 mg/kg IP.

`NC(C(=O)N1CCCC1)C(O)c1ccncc1` (racemic) [Compound A]: under setting [1], the “Latency to first convulsion” value amounted to 342.8 ± 76.7 s, the “Number of events Myoclonic” value is 1.40 ± 0.4, the “Number of events Clonic” value is recorded as 0.2 ± 0.1 and the “Number of events Tonic-Clonic” value is on record as 0.5 ± 0.2.
For `N[C@@H](C(=O)N1CCCC1)[C@@H](O)c1ccncc1` [Compound B], under setting [1], the “Latency to first convulsion” value worked out at 208.8 ± 84.29 s, the “Number of events Myoclonic” value is 0.83 ± 0.31, the “Number of events Clonic” value came to 0.83 ± 0.17 and the “Number of events Tonic-Clonic” value worked out at 0.0 ± 0.0. Besides, under setting [2], the “Latency to first convulsion” value turned out to be 308.9 ± 92.55 s, the “Number of events Myoclonic” value was 0.17 ± 0.17, the “Number of events Clonic” value worked out at 0.50 ± 0.22 and the “Number of events Tonic-Clonic” value is recorded as 0.33 ± 0.21.
For the compound `N[C@@H](C(=O)N1CCCC1)[C@@H](O)c1ccc(F)cc1` [Compound C], under setting [1], the “Latency to first convulsion” value worked out at 367.1 ± 78.30 s, the “Number of events Myoclonic” value is given as 2.00 ± 1.02, the “Number of events Clonic” value was found to be 0.10 ± 0.10 and the “Number of events Tonic-Clonic” value amounted to 0.0 ± 0.0.
Consider `CN1C(=O)CN=C(c2ccccc2)c2cc(Cl)ccc21` [Diazepam, reference compound], for which, under setting [3], the “Latency to first convulsion” value amounted to 546.4 ± 53.60 s, the “Number of events Myoclonic” value came out at 0.0 ± 0.0, the “Number of events Clonic” value came out at 0.0 ± 0.0 and the “Number of events Tonic-Clonic” value stood at 0.60 ± 0.60.
Turning to `NCC1(CC(=O)O)CCCCC1` [Gabapentin, reference compound], under setting [4], the “Latency to first convulsion” value was found to be 194.8 ± 30.41 s, the “Number of events Myoclonic” value is reported as 1.20 ± 0.55, the “Number of events Clonic” value came to 0.90 ± 0.18 and the “Number of events Tonic-Clonic” value is 0.20 ± 0.13.
